Results on one molecule are retold here after paper PMC11681892, “Targeting p62 by sulforaphane promotes autolysosomal degradation of SLC7A11, inducing ferroptosis for osteosarcoma treatment” (Redox Biology, 2024).

The target in assay [1] is T1, p62 (Homo sapiens, UniProt Q13501).
T1 construct: gene SQSTM1; p62-mCherry plasmid expressed in HEK293T, RIPA lysate (MST); endogenous p62 in human osteosarcoma cells (CETSA); p62 mutants transfected into 143B cells (DARTS)
The assay can be described thus: microscale thermophoresis (Monolith NT.[…]). The format is binding.

In assay [2] the target is T1, p62. Nature of the assay: cellular thermal shift assay (CETSA), western blot. The format is cell-based. To be noted: endogenous p62 in osteosarcoma cells, SFN 20 μM, 2 h, 46-60 °C gradient.

T1 sequence (Q13501 2-440): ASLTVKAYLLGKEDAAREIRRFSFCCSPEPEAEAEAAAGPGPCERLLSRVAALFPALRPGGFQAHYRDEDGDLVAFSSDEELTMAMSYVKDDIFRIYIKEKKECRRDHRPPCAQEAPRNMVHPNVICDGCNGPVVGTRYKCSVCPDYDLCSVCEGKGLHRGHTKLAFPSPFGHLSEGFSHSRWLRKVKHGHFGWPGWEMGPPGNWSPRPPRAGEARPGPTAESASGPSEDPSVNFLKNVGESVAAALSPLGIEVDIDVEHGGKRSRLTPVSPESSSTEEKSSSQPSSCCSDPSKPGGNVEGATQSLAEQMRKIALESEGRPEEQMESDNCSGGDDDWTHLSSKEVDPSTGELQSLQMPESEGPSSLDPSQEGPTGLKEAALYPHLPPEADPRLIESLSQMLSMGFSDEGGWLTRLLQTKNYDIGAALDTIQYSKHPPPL

`C[S@@+]([O-])CCCCN=C=S` [Sulforaphane] returned a Kd at p62 [1] of 15.5 ± 3.93 µM. In addition, the “thermal stability (CETSA)” value at p62 [2] is “SFN significantly enhanced the thermal stability of p62 in OS cells (Fig. 6C)”.
